What was measured:
[1] = test system: HUVEC; assay: Low shear stress experiment on HUVEC (morphology, F-actin immunofluorescence); assay type: cell-based, human; conditions: peptide pre-treatment 1 hour (100 mM), shear stress 4 dyn/cm^2 for 6 hours
Experimental: HUVEC was purchased by ScienCell Research Laboratories (CA, USA). The pellet was resuspended in M199 culture medium supplemented with penicillin/streptomycin and 20% fetal bovine serum (FBS), after which the cells were plated onto cell culture dishes. ECs were grown in Petri dishes for three days and then seeded onto glass slides pre-coated with rat tail type I collagen. Secondary cultures were used for the experiments within two days after reaching confluence (˜1-2×10^5 cells/cm^2).^12
HUVECs was mounted on a slide in a parallel-plate flow chamber, which was connected to a perfusion loop system (15). The system was kept in a constant-temperature, maintained at pH 7.4 by gassing with 5% CO2. The osmolality of the medium was kept in the range 285-295 mOsm/kg during perfusion. The flow channel width (w) was 1 cm and the channel height (h) was 0.025 cm. […]
After exposing to shear stress with or without peptide treatment, HUVECs were washed, fixed with 4% formaldehyde, and permeabilized by 1% Triton X-100 in PBS at 37° C. for 30 min. […] Intracytoplasmic F-actin immunofluorescence was detected by staining with phalloidin-fluorescein isothiocyanate (FITC) (1:1000 eBioscience) for 1 hr at room temperature, and cell nuclear stained with 4′,6-diamidino-2-phenylindole (DAPI) for 10 min at room temperature. Fluorescent cells were photographed by a fluorescence microscope with CCD (OLYMPUS).

[2] = test system: PMNs isolated from TLR4(−/−) mice C3H/HeJ; assay: LPS-induced PMN transendothelial migration, PMNs from TLR4(-/-) C3H/HeJ mice; assay type: cell-based; conditions: LPS 1 μg/ml, HUVEC monolayer Transwell
Experimental: To obtain mice neutrophils from TLR4-deficient [TLR4(−/−)] C3H/HeJ mice and wild type C3H/HeN mice, inflammation was induced by 0.1 ml of uric acid solution into the peritoneal cavity of the mouse. The uric acid solution (noncrystalline form) was prepared by mixing with saline (10% [wt/vol]) and sonicated for 10 min. Immediately before inoculation, the milky white precipitated uric acid solution was shaken vigorously. Peritoneal exudate cells were harvested 4, 18, or 24 h after injection by two lavages of the peritoneal cavity with 5 ml of cold phosphate-buffered saline (PBS; total volume, 10 ml). Uric acid-induced peritoneal cells (UAPMN) were washed by centrifugation at 200×g for 10 min at 4° C. […] The numbers and populations of peritoneal exudate cells were determined by staining the nuclei with Turk reagent and by cytospin centrifugation followed by May-Grünwald-Giemsa staining, respectively. […] Viability of the isolated neutrophils exceeded 95% as determined by trypan blue exclusion. […]
Neutrophils from human were isolated blood that was drawn in a syringe containing preservative-free heparin (20 U/ml final), and mixed with an equal volume of PBS containing 3% dextran and then incubated for 20 min at room temperature. […] The viability of the isolated neutrophils exceeded 95%, as determined by Trypan blue exclusion. […]

[3] = Body weight in C57BL/KsJ-db/db diabetic mice; assay type: in vivo; conditions: 2 mg/kg/3 days i.p. for 30 days, compared with control group, after week 2
Experimental: Male C57BL/KsJ-db/db mice (diabetic deficiency knockout mice) at 5 weeks of age (23 g) were fed a pelletized commercial chow diet for acclimation from the arrival for 2 weeks. […]. They were given free access to food and distilled water, and the food consumption and body weight gain were measured daily and weekly, respectively. […]; and (2) group 2 served as diabetic mice administered C70PLY4 (2 mg/kg/3 days) in aqueous suspension i.p. for 30 days (C70PLY4). […] The blood was centrifuged at 1000 g for 15 min at 4° C., and plasma and erythrocyte were separated. The livers and adipose tissues were removed, washed, weighted, and frozen at −70° C. until analyzed.

## QDLTAHFTTSIPLKGNVRNLSVKIRECTGLAWEWWRTVYEKTDLPLVRKRTISIWGTTLYPQVEDKVEND [C70PLY4]
[1]
  low shear stress induced cytoskeleton (F-actin) remodeling: almost block
  low shear stress induced morphological change: almost block
[2]
  PMNs migration, TLR4(−/−) mice model (FIG. 10): this phenomenon did not occur
[3]
  body weight: significantly decreases

Reference: patent publication US10287328B2, “Treatment of diabetes, toll-like receptor 4 modulators and methods for using the same” (KeMyth Biotech Co., Ltd., priority 2016, dated 2019)
